Experimental data reported in US6593342B1, “Pharmaceutical compositions comprising 2-quinolones” (Laboratoire L. Lafon, priority 1998, dated 2003).

How the values were obtained:
A549 = assay: MTT test, A549; type: cell-based; conditions: Homo sapiens, 10^−5 M, 72 hours, control = 100%, mean ± SEM, read-out: average optical density (MTT), percentage relative to control
Procedure: The influence of the compounds of formulae (I) and (Ia) on non-clonogenic cells was evaluated with the aid of the MTT calorimetric test.
The principle of the MTT test is based on the mitochondrial reduction, by the metabolically active live cells, of the yellow-colored product MTT (3-(4,5-dimethylthiazol-2-yl)-2,5-diphenyltetrazolium bromide) to a blue-colored product, formazan. The amount of formazan thus obtained is directly proportional to the amount of live cells present in the culture well(s). This amount of formazan is measured by spectrophotometry.
The cell lines are maintained as a monolayer culture at 37° C. in stoppered culture dishes containing MEM 25 MM HEPES (Minimum Essential Medium) base medium. This medium is suited to the growth of a range of various mammalian diploid or primary cells. This medium is then supplemented with:
an amount of 5% of FCS (Foetal Calf Serum) decomplemented at 56° C. for 1 hour,
0.6 mg/ml of L-glutamine,
200 μg/ml of streptomycin,
The 12 human cancer cell lines which were used were obtained from the American Type Culture Collection (ATCC, Rockville, Md., USA). These 12 cell lines are:
A549 (code ATCC: CCL-185) and A-427 (code ATCC: HTB-53) which are two non-small-cell lung cancers,
Experimentally: 100 μl of a cell suspension containing 20 000 to 50 000 (depending on the cell type used) cells/ml of culture medium are inoculated in 96-well flat-bottomed multi-well plates and are incubated at 37° C., under an atmosphere comprising 5% CO2 and 70% humidity. After incubation for 24 hours, the culture medium is replaced with 100 μl of fresh medium containing either the various test compounds at concentrations ranging from 10^−5 to 10^−10 M or the solvent used to dissolve the test products (control condition). After incubation for 72 hours under the above conditions, the culture medium is replaced with 100 μl of a yellowish solution of MTT dissolved at a rate of 1 mg/ml in RPMI 1640. The microplates are reincubated for 3 hours at 37° C. and are then centrifuged for 10 minutes at 400×g. The yellowish solution of MTT is removed and the blue formazan crystals formed in the cell are dissolved in 100 μl of DMSO. The microplates are then shaken for 5 minutes. The intensity of the resulting blue coloration, and thus of the conversion of the yellow product MTT into blue formazan by the cells that are still alive at the end of the experiment, is quantified by spectrophotometry using a Dynatech Immunoassay System machine at wavelengths of 570 nm and 630 nm corresponding, respectively, to the maximum absorption wavelengths of formazan and to the background noise. Software incorporated in the spectrophotometer calculates the average optical density values and the standard deviation (SD) and standard error of mean (SEM) values.
By way of example, the results of the average optical density, expressed as a percentage relative to the average optical density measured under the control condition (set equal to 100%), obtained at a concentration of 10^−5 M on the 12 abovementioned tumor cell lines are given in Table II.

[1] = test system: hormone-sensitive mouse mammary adenocarcinoma MXT (HS-MXT); assay: In vivo antitumor activity, mouse mammary adenocarcinoma HS-MXT
Procedure: 4.—In Vivo Antitumor Activity in Combination With a Cytotoxic Agent
The tests were carried out on models of:
hormone-sensitive mouse mammary adenocarcinoma MXT (HS-MXT),
in the presence or absence of cytotoxic agents such as cyclophosphamide, etoposide, doxorubicin or vincristine.
When the MTD value of a product was determined, its in vivo antitumor activity was characterized at doses of MTD/2, MTD/4 and MTD/8 on the model of mouse mammary adenocarcinoma HS-MXT and on the model of lymphoma P 388.
In all the examples presented below, irrespective of the model (mammary adenocarcinoma HS-MXT or lymphoma P 388), the control condition is represented by a batch of 9 mice to which is administered for 5 consecutive weeks and at a rate of 5 administrations (Monday, Tuesday, Wednesday, Thursday and Friday) per week a volume of 0.2 ml of physiological saline containing the solvent used to dissolve the various compounds of formulae (I) and (Ia) used.
The following parameters were determined in these tests:
i)—The survival rate of the mice
This survival rate was calculated in the form of a ratio T/C:
This ratio represents the average survival time of the median mouse from the batch of treated mice relative to the average survival time of the median mouse from the batch of control mice. Thus, a molecule induces a significant (P<0.05) increase in the survival of the animals when the index T/C exceeds 130%. Conversely, it has a toxic effect when this value of T/C is less than 70%.
ii)—The tumor growth [lacuna] by measuring the area of the grafted HS-MXT or P 388 tumors twice a week (Monday and Friday). This area is calculated by multiplying the values of the largest two perpendicular axes of the tumor. The value of these axes is measured using a sliding caliper.
The model of hormone-sensitive MXT (HS-MXT) mouse mammary adenocarcinoma grafted onto 4- to 6-week-old B6D2F1/JIco mice is derived from the milk ducts of the mammary gland (Watson C. et al. Cancer Res. 1977; 37: 3344-48).
Compound 1 is administered alone. The first injection of the product is carried out on the seventh day post-grafting (D7) for four consecutive weeks at a rate of 5 injections per week (Monday, Tuesday, Wednesday, Thursday and Friday) and at a dose of 20 mg/kg.
Cyclophosphamide (CPA) is administered alone. The first injection of the product is carried out on the fourteenth day post-grafting (D14) for three consecutive weeks at a rate of 3 injections per week (Monday, Wednesday and Friday) and at a dose of 10 mg/kg.
Compound 1 is co-administered with cyclophosphamide. In this case, the first injection of compound 1 is carried out on the seventh day post-grafting (D7) for four consecutive weeks at a rate of 5 injections per week (Monday, Tuesday, Wednesday, Thursday and Friday) at a dose of 20 mg/kg, and the first injection of cyclophosphamide is carried out on the fourteenth day post-grafting (D14) for three consecutive weeks at a rate of 3 injections per week (Monday, Wednesday and Friday) at a dose of 10 mg/kg.
Etoposide (ETO) is administered alone. The first injection of the product is carried out on the fourteenth day post-grafting (D14) for three consecutive weeks at a rate of 3 injections per week (Monday, Wednesday and Friday) and at a dose of 10 mg/kg.
Doxorubicin (DOX) is administered alone. The first injection of the product is carried out on the fourteenth day post-grafting (D14) for three consecutive weeks at a rate of 3 injections per week (Monday, Wednesday and Friday) and at a dose of 5 mg/kg.
Compound 1 is co-administered with etoposide.

SMILES | viability at 10 µM (A549) [%] | further results
COc1ccc(-c2cc3c(OC)cc(OC)cc3[nH]c2=O)cc1 [CRL8246, 5,7-Dimethoxy-3-(4-methoxyphenyl)-1,2-dihydro-2-quinolinone] | 113 ± 2.1 | T/C (survival) ([1]; Table IV, HS-MXT in B6D2F1/JIco mice, compound 1 20 mg/kg 5 injections/week from D7, 4 weeks, CPA 10 mg/kg 3 injections/week from D14, 3 weeks): 100%; T/C (survival) ([1]; Table V, HS-MXT in B6D2F1/JIco mice, compound 1 20 mg/kg 5/week from D7, 4 weeks, ETO 10 mg/kg or DOX 5 mg/kg 3/week from D14, 3 weeks): 95%; Tumor area, reduction (−) or increase (+) compared with control ([1]; Table VI, HS-MXT tumors, 31st day after graft, 19 administrations of compound 1 (20 mg/kg), 8 of cyclophosphamide (10 mg/kg)): −19.5%
CCN(CC)C(=O)Cn1c(=O)c(-c2ccc(OC)cc2)cc2c(OC)cc(OC)cc21 [CRL8315, N,N-Diethyl-2-[5,7-dimethoxy-3-(4-methoxy-phenyl)-2-oxo-1,2-dihydro-1-quinolinyl]acetamide] | 76.1 ± 2.4 | 
CCN(CC)C(=O)CCn1c(=O)c(-c2ccc(OC)cc2)cc2c(OC)cc(OC)cc21 [CRL8283, N,N-Diethyl-3-[5,7-dimethoxy-3-(4-methoxy-phenyl)-2-oxo-1,2-dihydro-1-quinolinyl]propanamide] | 63.6 ± 4.2 | 
COc1ccc(-c2cc3c(OC)cc(OC)cc3n(CCN(C)C)c2=O)cc1 [CRL8316, 1-[2-(Dimethylamino)ethyl]-5,7-dimethoxy-3-(4-methoxyphenyl)-1,2-dihydro-2-quinolinone] | 84.2 ± 1.9 | 
COc1ccc(-c2cc3c(OC)cc(OC)cc3n(CCc3nnn[nH]3)c2=O)cc1 [CRL8256, 1-[2-(1H-1,2,3,4-Tetrazol-5-yl)ethyl]-5,7-dimethoxy-3-(4-methoxyphenyl)-1,2-dihydro-2-quinolinone] | 56.5 ± 3.7 | T/C (survival) ([1]; Table VII, HS-MXT, compound 21 40 mg/kg 5/week from D7, 5 weeks, ETO 10 mg/kg 3/week from D7, 3 weeks): 110%
COc1ccc(-c2cc3c(OC)cc(OC)cc3n(CCC#N)c2=O)cc1 [CRL8247, 3-[5,7-Dimethoxy-3-(4-methoxyphenyl)-2-oxo-1,2-dihydro-1-quinolinyl]propanenitrile] | 81.3 ± 1.9 | 
